Measurements as given in article PMC5394417, “Investigating the molecular mechanism of positive and negative allosteric modulators in the calcium-sensing receptor dimer” (Scientific Reports, 2017).

Legend:
[1] = biological target: T1, HA-S147A/S170A CaSR mutant (Rattus norvegicus, UniProt P48442, S147A/S170A); assay: IP-One assay, HEK293T transiently transfected; type: cell-based
T1 construct: mGluR5 signal peptide (N); expressed in transfected cells; host or cells: HEK293T
T1 sequence (P48442 20-1079 S147A/S170A): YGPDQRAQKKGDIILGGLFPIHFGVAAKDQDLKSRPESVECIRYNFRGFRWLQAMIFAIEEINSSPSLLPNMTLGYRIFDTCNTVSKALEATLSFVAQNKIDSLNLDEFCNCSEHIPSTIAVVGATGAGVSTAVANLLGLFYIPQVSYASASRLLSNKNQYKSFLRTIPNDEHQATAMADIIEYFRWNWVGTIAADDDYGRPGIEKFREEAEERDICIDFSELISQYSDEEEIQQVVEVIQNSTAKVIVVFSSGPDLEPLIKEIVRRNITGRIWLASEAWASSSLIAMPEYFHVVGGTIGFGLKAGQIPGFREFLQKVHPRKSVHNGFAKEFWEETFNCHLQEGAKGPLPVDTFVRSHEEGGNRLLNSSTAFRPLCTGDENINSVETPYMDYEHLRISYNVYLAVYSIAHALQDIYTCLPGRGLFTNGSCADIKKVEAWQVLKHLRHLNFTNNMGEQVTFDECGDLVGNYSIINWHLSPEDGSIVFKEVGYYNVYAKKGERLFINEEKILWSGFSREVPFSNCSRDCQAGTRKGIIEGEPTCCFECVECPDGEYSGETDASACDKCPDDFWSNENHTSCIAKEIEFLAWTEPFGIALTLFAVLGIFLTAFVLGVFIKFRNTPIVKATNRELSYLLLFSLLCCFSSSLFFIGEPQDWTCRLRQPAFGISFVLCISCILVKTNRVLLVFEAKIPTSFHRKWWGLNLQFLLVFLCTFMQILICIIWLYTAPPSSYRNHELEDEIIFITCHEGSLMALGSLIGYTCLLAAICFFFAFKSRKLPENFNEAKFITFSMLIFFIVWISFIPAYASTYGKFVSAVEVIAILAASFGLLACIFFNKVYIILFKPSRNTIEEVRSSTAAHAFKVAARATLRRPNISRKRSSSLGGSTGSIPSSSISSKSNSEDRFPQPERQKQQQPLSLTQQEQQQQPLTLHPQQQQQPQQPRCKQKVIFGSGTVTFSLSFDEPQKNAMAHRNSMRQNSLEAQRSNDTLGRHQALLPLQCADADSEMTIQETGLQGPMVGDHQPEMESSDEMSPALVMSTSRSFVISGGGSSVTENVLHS

myc-CaSR-F801A = biological target: T2, myc-CaSR-F801A (Rattus norvegicus, UniProt P48442, F801A); assay: IP-One assay, co-expression with pEGFPN1 in HEK293T; type: cell-based; settings: concentrations up to 45 mM Ca^2+
T2 construct: mGluR5 signal peptide (N); expressed in transfected cells; host or cells: HEK293T
Method: Human embryonic kidney (HEK) 293T cells were cultured in DMEM supplemented with 10% dFBS and 1% P/S at 37 °C and 5% CO2. 48 h prior to assay, transient transfection was performed using Lipofectamine 2000 as the transfection reagent. White opaque 96-well culture plates (PerkinElmer, Waltham, MA, USA) were used for the ELISA and the TR-FRET dimerization assay, while clear tissue culture treated 96-well plates (Corning, Corning, NY, USA) were used for the IP-One assay. Both plate types were coated with poly-D-lysine before addition of cells and transfection mix. 0.25 μl/well of Lipofectamine 2000 were diluted in 25 μl/well of Opti-MEM and incubated at room temperature (RT) for 5 min. 0.03 μg/well of DNA was diluted in 25 μl/well of Opti-MEM, and subsequently mixed with the Lipofectamine 2000 dilution and incubated 20 min at RT before addition to the plates. […]
Functional activity was measured using the IP-One assay, which is an IP1 accumulation assay. […] The 384-well plate was incubated for 1 h at RT in dark before being measured on an EnVision plate reader (PerkinElmer, Waltham, MA, USA). Upon excitation at 340 nm, emission at 615 nm and 665 nm was measured, and the FRET ratio (665 nm/615 nm) was converted to IP1 concentrations by interpolating values from an IP1 standard curve generated from a provided IP1 calibrator (Cisbio Bioassays, Codolet, France). […]

T2 sequence (P48442 20-1079 F801A): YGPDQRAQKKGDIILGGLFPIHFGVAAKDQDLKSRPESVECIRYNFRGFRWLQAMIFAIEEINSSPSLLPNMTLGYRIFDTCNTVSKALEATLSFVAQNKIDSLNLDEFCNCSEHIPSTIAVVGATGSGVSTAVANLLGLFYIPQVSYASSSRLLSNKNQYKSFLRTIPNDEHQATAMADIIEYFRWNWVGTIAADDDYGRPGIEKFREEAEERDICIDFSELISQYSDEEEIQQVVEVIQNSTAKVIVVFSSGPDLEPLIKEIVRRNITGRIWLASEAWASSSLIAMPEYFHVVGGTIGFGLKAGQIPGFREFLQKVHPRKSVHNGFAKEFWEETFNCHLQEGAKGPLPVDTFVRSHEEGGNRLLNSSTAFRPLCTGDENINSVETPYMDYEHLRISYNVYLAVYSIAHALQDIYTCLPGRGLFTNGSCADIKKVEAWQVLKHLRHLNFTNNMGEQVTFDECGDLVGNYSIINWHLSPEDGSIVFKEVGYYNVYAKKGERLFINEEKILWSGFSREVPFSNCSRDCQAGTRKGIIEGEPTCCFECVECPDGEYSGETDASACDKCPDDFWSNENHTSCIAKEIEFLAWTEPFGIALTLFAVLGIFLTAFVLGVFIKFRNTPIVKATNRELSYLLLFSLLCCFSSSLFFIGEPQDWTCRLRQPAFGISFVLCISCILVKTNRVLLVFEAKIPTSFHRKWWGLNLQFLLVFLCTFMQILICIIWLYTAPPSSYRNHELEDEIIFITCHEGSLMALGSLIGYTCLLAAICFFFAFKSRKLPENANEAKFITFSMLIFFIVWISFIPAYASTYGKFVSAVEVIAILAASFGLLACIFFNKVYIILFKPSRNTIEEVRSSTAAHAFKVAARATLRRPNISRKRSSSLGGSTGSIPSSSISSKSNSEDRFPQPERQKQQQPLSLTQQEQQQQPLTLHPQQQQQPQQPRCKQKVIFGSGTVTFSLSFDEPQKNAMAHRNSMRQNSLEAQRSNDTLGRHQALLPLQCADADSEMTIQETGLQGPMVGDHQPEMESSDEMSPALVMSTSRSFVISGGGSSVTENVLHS

SMILES: [Ca+2] [Ca^2+]
- EC50 ([1]; Ca^2+ alone): 9.04 mM
- Hill coefficient ± S.E.M. ([1]; Ca^2+ alone): 3.00 ± 0.07
- pEC50 ± S.E.M. ([1]; Ca^2+ alone): 2.04 ± 0.02
- Max ± S.E.M. ([1]; normalized to maximum response of WT CaSR): 130 ± 28%
- functional response to Ca^2+ (myc-CaSR-F801A): non-functional
